How the values were obtained:
[1] = Solubility of cis- and trans-2,2,4,4-tetramethylcyclobutanediol in isobutyl isobutyrate (GC of saturated liquid phase); type: physicochemical
Description: All of the solubility data and concentrations of cis and trans TMCD were measured by gas chromotography (GC) using an Agilent 6890GC instrument. The instrument was equipped with a split-splitless injector and flame ionization detection. The column is a DB®-Wax, 30 meter×0.25 mm ID, 0.50 μm film thickness column. The cis/trans ratio of the compositions was calculated from the respective concentrations.
The charge concentration of the isomers is expressed as weight % relative to the saturated concentration of each isomer at a temperature of 62.6° C.
The charge concentration of the isomers is expressed as weight % relative to the saturated concentration of each isomer at a temperature of 62.6° C. The vessel was equipped with a 4-blade flat blade pitched impeller for solids suspension, and the jacket was used to control the temperature of the vessel contents. The vessel was equipped with charging and sampling ports on top and a valve at the base to drain the vessel contents.
The slurry was allowed to stand for one hour sufficient for the solids to saturate the solvent at 6.4° C. At that time, a sample of the solution was drawn from the cell using a fritted pipette so as to remove only the liquid phase. The sample was analyzed for cis and trans isomer content. These values represented the saturated concentration of each isomer at the sampling temperature.
The cell contents were heated to 10.2° C. and the contents were held for a further hour to allow the slurry to equilibrate. A sample was then taken of the solution and analyzed. Following this procedure, data was gathered to 62.6° C.

[2] = Meta-stable zone width in isobutyl isobutyrate (colorimeter transmission on cooling from 90 to 10 °C); type: physicochemical; details: for Limit of MZW / MZW (meta-stable zone width): isobutyl isobutyrate; for difference in onset of nucleation between repeated cool-downs: Experiments 3 and 4 of Table 2, same cooling rate 5 °C/hr; for Limit of Meta-Stable Zone Width: Table 1A, in isobutyl isobutyrate, data points shown in FIG. 7
Excerpt: The meta-stable zone width was estimated by charging 800 grams of a solution containing 100 relative weight % cis-2,2,4,4-tetramethylcyclobutanediol and 69 relative weight % trans-2,2,4,4-tetramethylcyclobutanediol in isobutyl isobutyrate solvent to a 1.2 L jacketed glass vessel. The vessel was equipped with a 4-blade flat blade pitched impeller for solids suspension, and the jacket was used to control the temperature of the vessel contents. The vessel was equipped with charging and sampling ports on top and a valve at the base to drain the vessel. The vessel contents were heated to 90° C., at which temperature both isomers were completely in solution.
All measurements to estimate the meta-stable zone width were made using a Beckmann Instruments PC 800 Colorimeter device. The device operated by transmitting a white light source into the solution which was reflected from a mirror at a distance of several millimeters from the source back to a detector in the probe. When no particles were present in suspension, most of the light was reflected back to the detector. If the solution was relatively transparent, some of the light was adsorbed by the solution and some was diffracted, but the majority was reflected. If crystals were present, a substantial quantity of the white light was adsorbed by the crystal mass and diffracted and less of the light was reflected back to the detector. In order to calibrate the instrument, a reference intensity was measured when no crystals were in suspension, and this was referred to as the 100% transmittance level.
The colorimeter was placed in the vessel such that the probe tip was submerged in the solution. The crystal free solution was cooled from 90° C. to 10° C. at a pre-determined cooling rate indicated in Table 2 and the magnitude of the transmission signal of the white light source monitored. When crystals appeared in solution, the white light source was blocked and the transmission/reflection decreased rapidly. Two distinct step changes in the transmission signal were observed indicating the nucleation of cis- and trans-2,2,4,4-tetramethylcyclobutanediol in suspension. FIG. 8 is a graph showing the solubility of cis-and trans-2,2,4,4-tetramethylcyclobutanediol in isobutyl isobutyrate and operating points for continuous crystallization.

[3] = Table 1A, in isobutyl isobutyrate, extrapolated from the data of FIG. 7
[4] = Table 2, solution in isobutyl isobutyrate used for MZW experiments 1-4
[5] = in isobutyl isobutyrate, 6.4 °C, wt % relative to saturated concentration of each isomer at 62.6 °C
[6] = in isobutyl isobutyrate, 10.2 °C, relative to saturated concentration at 62.6 °C
[7] = in isobutyl isobutyrate, 19 °C, relative to saturated concentration at 62.6 °C
[8] = in isobutyl isobutyrate, 26.2 °C, relative to saturated concentration at 62.6 °C
[9] = in isobutyl isobutyrate, 34.7 °C, relative to saturated concentration at 62.6 °C
[10] = in isobutyl isobutyrate, 39.6 °C, relative to saturated concentration at 62.6 °C
[11] = in isobutyl isobutyrate, 44.5 °C, relative to saturated concentration at 62.6 °C
[12] = in isobutyl isobutyrate, 51.6 °C, relative to saturated concentration at 62.6 °C
[13] = in isobutyl isobutyrate, 58.8 °C, relative to saturated concentration at 62.6 °C
[14] = in isobutyl isobutyrate, 62.6 °C (reference temperature)
[15] = Experiment 1, cooling rate 15 °C/hr
[16] = Experiment 2, cooling rate 10 °C/hr
[17] = Experiment 3, cooling rate 5 °C/hr
[18] = Experiment 4, cooling rate 5 °C/hr

| SMILES | Saturated Temperature [1, 3] [°C] | Saturated Temperature [1, 4] [°C] | Solubility [1, 5] [Relative wt %] | Solubility [1, 6] [Relative wt %] | Solubility [1, 7] [Relative wt %] | Solubility [1, 8] [Relative wt %] | Solubility [1, 9] [Relative wt %] | Solubility [1, 10] [Relative wt %] | Solubility [1, 11] [Relative wt %] | Solubility [1, 12] [Relative wt %] | Solubility [1, 13] [Relative wt %] | Solubility [1, 14] [Relative wt %] | Limit of MZW [2, 15] [°C] | MZW (meta-stable zone width) [2, 15] [°C] | Limit of MZW [2, 16] [°C] | MZW (meta-stable zone width) [2, 16] [°C] | Limit of MZW [2, 17] [°C] | MZW (meta-stable zone width) [2, 17] [°C] | Limit of MZW [2, 18] [°C] | MZW (meta-stable zone width) [2, 18] [°C] | further results |
| --- | --- | --- | --- | --- | --- | --- | --- | --- | --- | --- | --- | --- | --- | --- | --- | --- | --- | --- | --- | --- | --- |
| CC1(C)[C@H](O)C(C)(C)[C@H]1O [Trans-2,2,4,4-tetramethylcyclobutanediol, trans-2,2,4,4-tetramethylcyclobutanediol] | 57 | 57 | 1 | 3 | 10 | 19 | 32 | 41 | 52 | 69 | 89 | 100 | 48.67 | 8.33 | 49.29 | 7.71 | 50.34 | 6.66 | 50.36 | 6.64 | difference in onset of nucleation between repeated cool-downs [2]: 0.02 °C; Limit of Meta-Stable Zone Width [2]: 50.36 °C |
| CC1(C)[C@H](O)C(C)(C)[C@@H]1O [Cis-2,2,4,4-tetramethylcyclobutanediol, cis-2,2,4,4-tetramethylcyclobutanediol] | 68 | 68 | 0 | 3 | 10 | 17 | 29 | 37 | 47 | 64 | 86 | 100 | 50.94 | 17.06 | 51.77 | 16.23 | 60.38 | 7.62 | 58.24 | 9.76 | difference in onset of nucleation between repeated cool-downs [2]: approximately 2 °C; Limit of Meta-Stable Zone Width [2]: 58.24 °C |
